# Measurements from the kinase profiling compilation of Christmann-Franck et al. (2016).
# Tests used:
# Assay in all cases: KINOMEscan competition binding
# Conditions in all cases: compound 2.0 µM
# ANKK1 (human) = ANKK1 (human) (UniProt Q8NFD2)
# AKT2 (human) = AKT2 (human) (UniProt P31751)
# EPHB1 (human) = EPHB1 (human) (UniProt P54762)
# PRKCE (human) = PRKCE (human) (UniProt Q02156)
# PAK2 (human) = PAK2 (human) (UniProt Q13177)
# CHUK (human) = CHUK (human) (UniProt O15111)
# ACVRL1 (human) = ACVRL1 (human) (UniProt P37023)
# STK32B (human) = STK32B (human) (UniProt Q9NY57)
# PLK3 (human) = PLK3 (human) (UniProt Q9H4B4)
# CASK (human) = CASK (human) (UniProt O14936)
# STK38 (human) = STK38 (human) (UniProt Q15208)
# MYO3A (human) = MYO3A (human) (UniProt Q8NEV4)
# [1] = test system: PIK3CA (human), P42336 [E542K]
# DCLK2 (human) = DCLK2 (human) (UniProt Q8N568)
# FLT3 (human) = FLT3 (human) (UniProt P36888)
# CDK17 (human) = CDK17 (human) (UniProt Q00537)
# CDK4 CCND3 (human) = CDK4 CCND3 (human) (UniProt P11802+P30281)
# NTRK1 (human) = NTRK1 (human) (UniProt P04629)
# MAP3K3 (human) = MAP3K3 (human) (UniProt Q99759)
# GSK3B (human) = GSK3B (human) (UniProt P49841)
# STK4 (human) = STK4 (human) (UniProt Q13043)
# PRKD2 (human) = PRKD2 (human) (UniProt Q9BZL6)
# CDK7 (human) = CDK7 (human) (UniProt P50613)
# PDPK1 (human) = PDPK1 (human) (UniProt O15530)
# TLK2 (human) = TLK2 (human) (UniProt Q86UE8)
# SRPK2 (human) = SRPK2 (human) (UniProt P78362)
# ZAP70 (human) = ZAP70 (human) (UniProt P43403)
# MAPK14 (human) = MAPK14 (human) (UniProt Q16539)
# RPS6KA5 KD1 (human) = RPS6KA5 KD1 (human) (UniProt O75582)
# PRPF4B (human) = PRPF4B (human) (UniProt Q13523)
# SIK1 (human) = SIK1 (human) (UniProt P57059)
# LYN (human) = LYN (human) (UniProt P07948)
# ABL2 (human) = ABL2 (human) (UniProt P42684)
# PIK3CA (human) = PIK3CA (human) (UniProt P42336)
# IKBKB (human) = IKBKB (human) (UniProt O14920)
# MAPK6 (human) = MAPK6 (human) (UniProt Q16659)
# PI4KB (human) = PI4KB (human) (UniProt Q9UBF8)
# SIK3 (human) = SIK3 (human) (UniProt Q9Y2K2)
# CLK1 (human) = CLK1 (human) (UniProt P49759)
# CDK13 (human) = CDK13 (human) (UniProt Q14004)
# STK17A (human) = STK17A (human) (UniProt Q9UEE5)
# RPS6KB1 (human) = RPS6KB1 (human) (UniProt P23443)
# EPHA6 (human) = EPHA6 (human) (UniProt Q9UF33)
# Sequence of SRPK2 (human) (P78362 whole entry, looked up): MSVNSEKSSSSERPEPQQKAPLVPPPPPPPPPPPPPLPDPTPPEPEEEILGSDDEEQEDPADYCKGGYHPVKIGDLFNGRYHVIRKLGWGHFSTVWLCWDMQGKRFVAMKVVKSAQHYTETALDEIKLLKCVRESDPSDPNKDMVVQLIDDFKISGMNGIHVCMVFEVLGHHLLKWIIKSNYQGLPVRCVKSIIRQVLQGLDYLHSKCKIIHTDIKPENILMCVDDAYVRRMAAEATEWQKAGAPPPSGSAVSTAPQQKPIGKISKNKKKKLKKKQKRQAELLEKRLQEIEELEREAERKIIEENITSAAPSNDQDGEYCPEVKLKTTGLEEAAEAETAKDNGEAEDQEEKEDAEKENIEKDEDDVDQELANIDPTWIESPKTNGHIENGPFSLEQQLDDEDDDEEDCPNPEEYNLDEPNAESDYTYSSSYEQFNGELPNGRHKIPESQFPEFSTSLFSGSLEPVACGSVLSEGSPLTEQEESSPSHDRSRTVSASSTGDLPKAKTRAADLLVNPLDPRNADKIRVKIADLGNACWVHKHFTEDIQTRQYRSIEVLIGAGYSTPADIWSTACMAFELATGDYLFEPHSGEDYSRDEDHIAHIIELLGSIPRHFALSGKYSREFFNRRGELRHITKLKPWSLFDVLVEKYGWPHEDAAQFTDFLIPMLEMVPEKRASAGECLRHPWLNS
# Sequence of CASK (human) (O14936 whole entry, looked up): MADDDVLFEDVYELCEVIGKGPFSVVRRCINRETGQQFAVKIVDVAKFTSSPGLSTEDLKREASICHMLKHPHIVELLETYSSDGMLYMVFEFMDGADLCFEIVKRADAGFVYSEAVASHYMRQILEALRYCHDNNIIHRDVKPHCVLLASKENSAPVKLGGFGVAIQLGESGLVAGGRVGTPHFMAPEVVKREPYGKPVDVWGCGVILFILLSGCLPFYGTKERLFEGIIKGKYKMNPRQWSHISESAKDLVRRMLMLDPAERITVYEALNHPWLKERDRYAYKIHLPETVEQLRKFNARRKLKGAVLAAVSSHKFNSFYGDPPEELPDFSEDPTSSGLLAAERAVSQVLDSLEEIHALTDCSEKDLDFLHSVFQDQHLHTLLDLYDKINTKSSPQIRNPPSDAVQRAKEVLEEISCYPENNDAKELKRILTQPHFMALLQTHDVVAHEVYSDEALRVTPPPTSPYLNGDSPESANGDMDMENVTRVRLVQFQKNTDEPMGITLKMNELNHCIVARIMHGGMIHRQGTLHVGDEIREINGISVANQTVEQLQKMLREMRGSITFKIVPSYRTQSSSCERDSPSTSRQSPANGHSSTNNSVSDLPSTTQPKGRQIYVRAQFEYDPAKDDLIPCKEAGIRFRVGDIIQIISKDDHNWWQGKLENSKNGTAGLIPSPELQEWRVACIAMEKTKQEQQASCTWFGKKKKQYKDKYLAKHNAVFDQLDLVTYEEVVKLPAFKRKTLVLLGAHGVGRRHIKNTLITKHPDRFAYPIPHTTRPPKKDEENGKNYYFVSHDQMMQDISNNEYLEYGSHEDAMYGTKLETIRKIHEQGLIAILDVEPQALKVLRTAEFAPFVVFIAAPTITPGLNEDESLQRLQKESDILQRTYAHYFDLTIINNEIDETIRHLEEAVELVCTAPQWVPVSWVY
# Sequence of DCLK2 (human) (Q8N568 whole entry, looked up): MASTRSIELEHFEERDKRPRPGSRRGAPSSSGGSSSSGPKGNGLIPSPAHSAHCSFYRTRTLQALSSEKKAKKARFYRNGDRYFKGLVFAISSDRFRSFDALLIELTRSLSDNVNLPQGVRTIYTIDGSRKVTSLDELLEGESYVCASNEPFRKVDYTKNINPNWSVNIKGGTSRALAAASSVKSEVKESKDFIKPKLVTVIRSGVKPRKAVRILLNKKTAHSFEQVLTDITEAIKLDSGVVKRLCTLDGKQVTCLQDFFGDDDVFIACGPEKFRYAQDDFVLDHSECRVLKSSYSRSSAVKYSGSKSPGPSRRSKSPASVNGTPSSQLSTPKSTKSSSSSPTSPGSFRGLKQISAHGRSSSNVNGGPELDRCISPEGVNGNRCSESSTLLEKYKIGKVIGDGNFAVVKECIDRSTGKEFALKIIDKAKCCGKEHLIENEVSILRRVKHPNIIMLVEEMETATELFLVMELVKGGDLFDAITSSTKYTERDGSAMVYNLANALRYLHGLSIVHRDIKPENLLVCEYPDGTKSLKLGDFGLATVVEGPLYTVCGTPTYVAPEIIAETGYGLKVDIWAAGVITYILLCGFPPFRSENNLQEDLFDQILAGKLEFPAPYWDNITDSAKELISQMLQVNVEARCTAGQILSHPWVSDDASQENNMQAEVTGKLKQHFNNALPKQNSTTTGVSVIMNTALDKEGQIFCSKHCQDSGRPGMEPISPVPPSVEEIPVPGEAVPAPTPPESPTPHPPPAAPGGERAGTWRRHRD
# Sequence of CDK13 (human) (Q14004 whole entry, looked up): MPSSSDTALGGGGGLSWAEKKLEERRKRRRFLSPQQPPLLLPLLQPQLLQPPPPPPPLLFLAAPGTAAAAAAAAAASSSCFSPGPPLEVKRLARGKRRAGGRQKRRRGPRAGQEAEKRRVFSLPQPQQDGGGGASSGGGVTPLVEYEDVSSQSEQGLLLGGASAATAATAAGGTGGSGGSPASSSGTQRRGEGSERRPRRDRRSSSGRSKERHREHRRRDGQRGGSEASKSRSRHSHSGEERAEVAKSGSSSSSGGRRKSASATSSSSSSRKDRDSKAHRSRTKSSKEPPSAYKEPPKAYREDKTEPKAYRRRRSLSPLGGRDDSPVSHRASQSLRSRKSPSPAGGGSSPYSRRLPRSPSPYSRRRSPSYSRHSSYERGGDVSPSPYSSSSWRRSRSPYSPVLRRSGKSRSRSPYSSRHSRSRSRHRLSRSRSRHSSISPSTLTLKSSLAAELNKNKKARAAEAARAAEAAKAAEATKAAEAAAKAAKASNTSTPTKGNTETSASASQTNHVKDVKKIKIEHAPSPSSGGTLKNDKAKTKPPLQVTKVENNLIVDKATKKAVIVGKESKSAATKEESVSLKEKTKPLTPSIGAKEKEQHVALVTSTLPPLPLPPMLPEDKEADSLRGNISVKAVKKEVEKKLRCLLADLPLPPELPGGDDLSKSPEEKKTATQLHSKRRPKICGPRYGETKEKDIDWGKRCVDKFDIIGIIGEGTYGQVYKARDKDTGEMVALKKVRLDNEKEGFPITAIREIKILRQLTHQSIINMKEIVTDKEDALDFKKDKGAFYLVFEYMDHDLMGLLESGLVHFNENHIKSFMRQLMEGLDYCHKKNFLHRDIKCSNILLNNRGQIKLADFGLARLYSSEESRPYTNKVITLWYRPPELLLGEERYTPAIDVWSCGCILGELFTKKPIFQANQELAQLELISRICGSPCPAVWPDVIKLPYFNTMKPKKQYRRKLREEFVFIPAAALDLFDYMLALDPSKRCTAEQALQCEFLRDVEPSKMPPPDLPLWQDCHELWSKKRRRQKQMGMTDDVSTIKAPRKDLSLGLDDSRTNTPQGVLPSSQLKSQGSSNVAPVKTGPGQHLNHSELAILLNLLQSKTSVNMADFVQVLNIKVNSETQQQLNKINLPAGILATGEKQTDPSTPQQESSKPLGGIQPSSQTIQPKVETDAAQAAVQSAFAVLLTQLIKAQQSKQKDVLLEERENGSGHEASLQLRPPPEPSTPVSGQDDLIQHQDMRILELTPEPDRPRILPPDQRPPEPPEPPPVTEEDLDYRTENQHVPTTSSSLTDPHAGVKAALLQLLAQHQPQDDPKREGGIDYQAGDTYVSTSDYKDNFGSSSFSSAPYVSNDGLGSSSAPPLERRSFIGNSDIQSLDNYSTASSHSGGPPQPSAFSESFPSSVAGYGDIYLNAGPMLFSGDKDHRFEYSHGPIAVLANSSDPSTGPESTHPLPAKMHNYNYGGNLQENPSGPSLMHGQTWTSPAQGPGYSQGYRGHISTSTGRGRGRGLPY
# Sequence of PRPF4B (human) (Q13523 whole entry, looked up): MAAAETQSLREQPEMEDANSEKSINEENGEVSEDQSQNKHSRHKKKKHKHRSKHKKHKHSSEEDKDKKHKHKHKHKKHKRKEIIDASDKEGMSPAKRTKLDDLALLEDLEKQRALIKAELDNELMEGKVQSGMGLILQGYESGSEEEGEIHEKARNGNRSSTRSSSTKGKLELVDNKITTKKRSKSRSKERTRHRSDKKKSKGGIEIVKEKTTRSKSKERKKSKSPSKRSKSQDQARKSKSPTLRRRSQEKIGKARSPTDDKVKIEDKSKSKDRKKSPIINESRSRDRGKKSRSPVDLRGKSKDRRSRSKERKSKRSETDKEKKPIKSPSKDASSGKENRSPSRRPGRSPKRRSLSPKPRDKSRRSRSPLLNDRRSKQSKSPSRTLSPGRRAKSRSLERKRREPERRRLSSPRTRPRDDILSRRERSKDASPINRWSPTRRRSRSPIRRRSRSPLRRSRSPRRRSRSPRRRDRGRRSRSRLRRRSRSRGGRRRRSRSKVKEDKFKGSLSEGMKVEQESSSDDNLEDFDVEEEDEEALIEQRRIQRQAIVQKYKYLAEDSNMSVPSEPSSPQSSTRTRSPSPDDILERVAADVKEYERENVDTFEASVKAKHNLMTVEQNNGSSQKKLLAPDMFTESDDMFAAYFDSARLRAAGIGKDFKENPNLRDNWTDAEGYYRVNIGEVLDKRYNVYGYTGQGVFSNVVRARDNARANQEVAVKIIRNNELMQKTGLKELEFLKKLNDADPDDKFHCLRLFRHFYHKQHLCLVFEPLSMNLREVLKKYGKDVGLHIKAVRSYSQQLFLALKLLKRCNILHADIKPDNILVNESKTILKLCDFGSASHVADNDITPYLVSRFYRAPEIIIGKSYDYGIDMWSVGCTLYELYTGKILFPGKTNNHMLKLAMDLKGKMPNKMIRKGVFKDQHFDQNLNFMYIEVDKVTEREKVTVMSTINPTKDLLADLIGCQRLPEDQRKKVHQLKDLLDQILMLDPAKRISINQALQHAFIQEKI
compound,measurement,setting,value
N#Cc1ccc2ncnc(NCCc3ccc4ccccc4c3)c2c1,"kinase still bound, per cent of control",ANKK1 (human),100%
same,"kinase still bound, per cent of control",AKT2 (human),100%
same,"kinase still bound, per cent of control",EPHB1 (human),87%
same,"kinase still bound, per cent of control",PRKCE (human),100%
same,"kinase still bound, per cent of control",PAK2 (human),82%
same,"kinase still bound, per cent of control",CHUK (human),74%
same,"kinase still bound, per cent of control",ACVRL1 (human),100%
same,"kinase still bound, per cent of control",STK32B (human),97%
same,"kinase still bound, per cent of control",PLK3 (human),80%
same,"kinase still bound, per cent of control",CASK (human),100%
same,"kinase still bound, per cent of control",STK38 (human),100%
same,"kinase still bound, per cent of control",MYO3A (human),100%
same,"kinase still bound, per cent of control",[1],84%
same,"kinase still bound, per cent of control",DCLK2 (human),100%
same,"kinase still bound, per cent of control",FLT3 (human),79%
same,"kinase still bound, per cent of control",CDK17 (human),90%
same,"kinase still bound, per cent of control",CDK4 CCND3 (human),100%
same,"kinase still bound, per cent of control",NTRK1 (human),100%
same,"kinase still bound, per cent of control",MAP3K3 (human),100%
same,"kinase still bound, per cent of control",GSK3B (human),89%
same,"kinase still bound, per cent of control",STK4 (human),100%
same,"kinase still bound, per cent of control",PRKD2 (human),73%
same,"kinase still bound, per cent of control",CDK7 (human),80%
same,"kinase still bound, per cent of control",PDPK1 (human),100%
same,"kinase still bound, per cent of control",TLK2 (human),94%
same,"kinase still bound, per cent of control",SRPK2 (human),100%
same,"kinase still bound, per cent of control",ZAP70 (human),94%
same,"kinase still bound, per cent of control",MAPK14 (human),100%
same,"kinase still bound, per cent of control",RPS6KA5 KD1 (human),100%
same,"kinase still bound, per cent of control",PRPF4B (human),100%
same,"kinase still bound, per cent of control",SIK1 (human),100%
same,"kinase still bound, per cent of control",LYN (human),99%
same,"kinase still bound, per cent of control",ABL2 (human),99%
same,"kinase still bound, per cent of control",PIK3CA (human),78%
same,"kinase still bound, per cent of control",IKBKB (human),100%
same,"kinase still bound, per cent of control",MAPK6 (human),91%
same,"kinase still bound, per cent of control",PI4KB (human),95%
same,"kinase still bound, per cent of control",SIK3 (human),100%
same,"kinase still bound, per cent of control",CLK1 (human),56%
same,"kinase still bound, per cent of control",CDK13 (human),100%
same,"kinase still bound, per cent of control",STK17A (human),100%
same,"kinase still bound, per cent of control",RPS6KB1 (human),97%
same,"kinase still bound, per cent of control",EPHA6 (human),100%
